What is called IC50 is the concentration at which inhibition is half-maximal. The term EC50 denotes the concentration giving half of the maximal effect. As usually defined, the AC50 is the concentration at which the activity in the assay is half-maximal.

The source made the active and inactive calls. Cut-off read from the data, not from the text of the source, for most assays here: actives have a measured EC50 and inactives only a lower limit.

Consider four compounds from ChEMBL document CHEMBL1201862, “PubChem BioAssay data set” (2004).

For one test, the system named is Staphylococcus aureus. Briefly: Inhibitors of Bacterial Quorum Sensing Structure Activity Relationship (SAR) Analysis: Dose Response Assay. [Related pubchem assays: 700, 527 ]. It is filed as functional, organism-based.
Test [1] can be described thus: luciferase reporter signal suppression in cells – H4 neuroglioma cells, luminescence, dose response (AID 1990). It is filed as functional, cell-based.
Test [2] is described as follows: luciferase reporter signal reduction – luminescence, H4-C neuroglioblastoma cells, dose response (AID 2458).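 Note: H4 neuroglioblastoma cells stably carrying a luciferase reporter gene fusion.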 Format: functional, cell-based. Background: A reporter such as luciferase makes a cellular process visible.
For test [3], the target named is Mitogen-activated protein kinase 10 (Homo sapiens, UniProt P53779). The test can be described thus: Dose response biochemical screening assay for inhibitors of c-Jun N-Terminal Kinase 3 (JNK3). [Related pubchem assays: 746 ].
Mitogen-activated protein kinase 10, sequence (P53779 whole entry): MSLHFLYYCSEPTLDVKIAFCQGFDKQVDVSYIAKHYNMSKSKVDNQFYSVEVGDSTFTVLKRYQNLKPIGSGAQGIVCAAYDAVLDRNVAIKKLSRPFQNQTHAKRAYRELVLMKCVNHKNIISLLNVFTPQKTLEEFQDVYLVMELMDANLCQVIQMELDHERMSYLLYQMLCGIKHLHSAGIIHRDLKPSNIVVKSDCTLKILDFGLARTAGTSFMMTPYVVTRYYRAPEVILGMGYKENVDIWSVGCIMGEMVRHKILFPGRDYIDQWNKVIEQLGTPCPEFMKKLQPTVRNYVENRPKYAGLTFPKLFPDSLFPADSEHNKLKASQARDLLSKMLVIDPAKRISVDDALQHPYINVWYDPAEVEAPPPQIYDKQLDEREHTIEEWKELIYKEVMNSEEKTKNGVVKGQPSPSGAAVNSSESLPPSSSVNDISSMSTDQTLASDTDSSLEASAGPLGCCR
The target of test [4] is T1, Luciferin 4-monooxygenase (Photinus pyralis, UniProt P08659). The test can be described thus: In vitro luciferase assay using purified luciferase. [Related pubchem assays: 1299, 1270, 1295, 1375, 1287, 1281, 1293, 1291, 1289, 1280, 465, 1364, 1282, 1372, 1365, 1370, 1367, 1366, 1266, 1373, 1292, 1290, 1302, 1371, 1283, 1271, 1294, 1374, 1368, 1369 ].
T1 sequence (P08659 whole entry): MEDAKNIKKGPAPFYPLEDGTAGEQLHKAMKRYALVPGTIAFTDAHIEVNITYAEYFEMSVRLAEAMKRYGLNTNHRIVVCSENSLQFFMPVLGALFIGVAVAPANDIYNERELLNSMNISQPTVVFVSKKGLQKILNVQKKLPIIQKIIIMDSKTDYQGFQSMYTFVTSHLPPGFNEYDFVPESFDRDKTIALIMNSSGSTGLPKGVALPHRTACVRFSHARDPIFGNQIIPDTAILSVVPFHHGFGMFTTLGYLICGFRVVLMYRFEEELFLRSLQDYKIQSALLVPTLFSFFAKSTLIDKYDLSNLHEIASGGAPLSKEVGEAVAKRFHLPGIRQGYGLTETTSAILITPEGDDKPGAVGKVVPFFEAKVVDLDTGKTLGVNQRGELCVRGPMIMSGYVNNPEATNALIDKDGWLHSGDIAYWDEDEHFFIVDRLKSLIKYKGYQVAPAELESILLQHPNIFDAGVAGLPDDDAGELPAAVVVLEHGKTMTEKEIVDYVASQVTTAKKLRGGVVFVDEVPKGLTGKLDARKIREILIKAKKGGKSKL
The test system of test [5] is HEK293. Briefly: Cytotoxicity assay in HEK293 cells. [Related pubchem assays (depositor defined):AID1266, AID1269, AID1270, AID1271, AID1280, AID1281, AID1282, AID1283, AID1287, AID1289, AID1290, AID1291, AID1292, AID1293, AID1294, AID1295, AID1299, AID1302, AID1364, AID1365, AID1366, AID1367, AID1369, AID1370, AID1371, AID1372, AID1373, AID1374, AID1375, AID1384 …. It is filed as functional, cell-based. Particulars: Homo sapiens.

In test [6] the target is T1, Luciferin 4-monooxygenase. The test can be described thus: Counter Screen for Luciferase-based Assay Positives. [Related pubchem assays: 620, 618, 411 ]. For orientation: The purpose of a counterscreen is to sort out artefacts and off-target activity.
Test [7] in a line: alpha-synuclein stem-loop translation blockers – luminescence, H4 neuroglioblastoma cells, dose confirmation, confirmation (AID 2454).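 Note: H4 neuroglioblastoma cells carrying an alpha-synuclein 5'UTR luciferase reporter; potency for inhibition of the luciferase signal.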 It is filed as functional, cell-based.
For test [8], the system named is BJ. Briefly: BJ-TERT-LT-ST fibroblast viability loss – cell-based, RAS-independent, luminescence, dose response (AID 1935).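 Note: BJ fibroblasts immortalized with TERT plus LT and ST oncogenes.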 Format: functional. The settings on record: Homo sapiens.
Test [9] can be described thus: alpha-synuclein stem-loop luciferase translation blockers – H4 neuroglioma cells, luminescence, confirmation (AID 1988). Format: functional, cell-based.
Test [10] is described as follows: HEK-293T viability loss after treatment – luminescence, T-cell screen hits, cytotoxicity control for TCR NF-kB inhibitor project, dose response (AID 489026).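 Note: cells exposed to compound about 14 hours before the viability readout.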 Format: functional, cell-based.
In test [11] the test system is BJ. Briefly: growth inhibition of engineered Ras-driven BJ cells – cell-based, alamar blue fluorescence, cherrypicked samples, dose response (AID 2631).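 Note: confirmatory dose-response assay in RAS-dependent BJ fibroblasts engineered with TERT, LT and ST, with cytotoxicity read by fluorescence.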 Format: functional. The settings on record: Homo sapiens. Background: The colour change of resazurin is a common sign of viable cells or microbes.
The subject of another test is HT-1080. Briefly: HT1080 cell viability loss – fluorescence readout (AID 620). It is filed as functional, cell-based. Particulars: Homo sapiens.
The nature of another test: cells. It is filed as functional, cell-based.
The subject of test [12] is HEK293. Briefly: PMA/Ionomycin induced NF-kB luciferase assay in 293- NF-kB-Luc stable cells. [Related pubchem assays: 1299, 1270, 1295, 1375, 1287, 1281, 1293, 1291, 1289, 1280, 465, 1364, 1282, 1372, 1365, 1370, 1367, 1366, 1269, 1373, 1292, 1290, 1302, 1371, 1283, 1271, 1294, 1374, 1368, 1369 ]. Particulars: Homo sapiens. It is filed as functional, cell-based.
Test [13] is described as follows: DRD fibroblast viability loss – cell-based, non-viral oncogenic, luminescence, dose response (AID 1934). It is filed as functional. Particulars: Homo sapiens.
In test [14] the target is T1, Luciferin 4-monooxygenase. The test can be described thus: inhibition of purified Photinus pyralis luciferase – biochemical, luminescence, dose response (AID 1891).
Test [15] in a line: Luminescence Cell-Based Dose Confirmation HTS to Identify Inhibitors of Platelet Dense Granule Release. [Related pubchem assays: 1663 (Primary HTS), 1678 (Summary of Project)]. Format: functional.
Test [16] has as its system BJ. Briefly: BJ-TERT fibroblast viability loss – cell-based, RAS-independent, luminescence, dose response (AID 1933). Format: functional. The settings on record: Homo sapiens.
In the next test the test system is HeLa. The test can be described thus: viability loss in HeLa cells – cell-based, 24 h, cherry-picked samples, cytotoxicity control, dose response (AID 504726).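 Note: potency for cytotoxicity as loss of luminescence signal.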 Particulars: Homo sapiens. Format: functional.
The next test addresses T2, CAAX prenyl protease 2 (Homo sapiens, UniProt Q9Y256).
T2 sequence (Q9Y256 whole entry): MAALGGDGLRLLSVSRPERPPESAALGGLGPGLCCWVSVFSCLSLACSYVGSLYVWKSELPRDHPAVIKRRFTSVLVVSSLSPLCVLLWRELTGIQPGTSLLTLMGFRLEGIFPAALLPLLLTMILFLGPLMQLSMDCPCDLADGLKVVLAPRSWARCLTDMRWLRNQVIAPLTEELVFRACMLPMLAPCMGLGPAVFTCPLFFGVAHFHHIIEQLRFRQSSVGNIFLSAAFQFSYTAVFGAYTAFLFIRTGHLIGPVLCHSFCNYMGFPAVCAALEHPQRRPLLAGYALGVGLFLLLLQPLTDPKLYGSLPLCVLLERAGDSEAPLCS
The test can be described thus: inhibition of Ras-converting CAAX protease Rce1 – biochemical, yeast membranes, quenched-peptide fluorescence, cherry-pick, dose response (AID 588849).

The target of another test is Trypsin (Sus scrofa, UniProt P00761). The test can be described thus: trypsin protease activity blockade – biochemical, quenched peptide fluorescence, cherry-pick, selectivity assay for Rce1 protease inhibitor project, dose response (AID 488789).
Trypsin, sequence (P00761 whole entry): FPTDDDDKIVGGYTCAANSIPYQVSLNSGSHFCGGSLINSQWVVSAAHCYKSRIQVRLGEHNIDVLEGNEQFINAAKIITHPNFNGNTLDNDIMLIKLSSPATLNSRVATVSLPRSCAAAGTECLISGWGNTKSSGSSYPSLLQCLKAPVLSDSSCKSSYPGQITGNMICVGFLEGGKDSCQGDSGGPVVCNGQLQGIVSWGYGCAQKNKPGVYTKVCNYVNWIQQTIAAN
In test [17] the target is T3, Neuropeptides B/W receptor type 1 (Homo sapiens, UniProt P48145).
T3 sequence (P48145 whole entry): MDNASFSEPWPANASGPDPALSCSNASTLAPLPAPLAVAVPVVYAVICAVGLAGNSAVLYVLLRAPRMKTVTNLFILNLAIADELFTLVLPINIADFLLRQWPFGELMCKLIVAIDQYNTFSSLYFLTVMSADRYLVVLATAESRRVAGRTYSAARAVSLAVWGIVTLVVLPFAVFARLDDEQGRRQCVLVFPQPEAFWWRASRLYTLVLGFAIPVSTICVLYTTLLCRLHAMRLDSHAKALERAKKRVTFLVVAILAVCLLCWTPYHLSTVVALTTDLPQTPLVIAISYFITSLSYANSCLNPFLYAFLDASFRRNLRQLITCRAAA
Briefly: Fluorescence-based dose response cell-based high throughput screening assay to identify antagonists of the G-protein coupled receptor 7 (GPR7). [Related pubchem assays: 1952 (Screening assay (GPR7 antagonists).), 1880 (Summary AID.)]. Format: functional.

For test [18], the target named is T4, Short transient receptor potential channel 4 (Mus musculus, UniProt Q9QUQ5).
T4 sequence (Q9QUQ5 whole entry): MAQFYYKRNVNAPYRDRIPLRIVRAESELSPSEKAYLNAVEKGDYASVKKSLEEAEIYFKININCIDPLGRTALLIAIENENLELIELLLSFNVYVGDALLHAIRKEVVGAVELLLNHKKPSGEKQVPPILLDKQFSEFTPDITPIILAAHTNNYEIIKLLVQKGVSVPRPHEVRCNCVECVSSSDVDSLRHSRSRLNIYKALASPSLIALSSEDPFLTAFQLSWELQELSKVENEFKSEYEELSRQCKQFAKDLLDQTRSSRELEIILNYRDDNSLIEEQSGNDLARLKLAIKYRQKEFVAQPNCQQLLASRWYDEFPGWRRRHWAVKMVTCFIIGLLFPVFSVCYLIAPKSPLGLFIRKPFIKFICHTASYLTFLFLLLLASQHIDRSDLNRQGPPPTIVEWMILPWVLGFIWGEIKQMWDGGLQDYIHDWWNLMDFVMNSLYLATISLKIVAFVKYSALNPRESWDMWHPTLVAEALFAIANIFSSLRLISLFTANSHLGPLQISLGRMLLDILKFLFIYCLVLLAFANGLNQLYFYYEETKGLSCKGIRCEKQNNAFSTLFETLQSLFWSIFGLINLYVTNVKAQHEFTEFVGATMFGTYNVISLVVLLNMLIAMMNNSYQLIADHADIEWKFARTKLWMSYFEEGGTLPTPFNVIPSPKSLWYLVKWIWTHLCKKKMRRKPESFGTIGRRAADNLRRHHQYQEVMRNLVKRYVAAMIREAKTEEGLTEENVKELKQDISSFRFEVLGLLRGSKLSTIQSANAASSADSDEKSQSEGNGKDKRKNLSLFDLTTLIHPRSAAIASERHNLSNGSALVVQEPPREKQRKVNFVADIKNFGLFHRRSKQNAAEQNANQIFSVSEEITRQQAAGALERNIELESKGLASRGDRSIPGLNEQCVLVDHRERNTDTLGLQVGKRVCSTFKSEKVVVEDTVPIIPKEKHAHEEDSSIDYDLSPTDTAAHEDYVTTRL
Briefly: calcium entry via TRPC4 opening agents – cell-based, HEK293 TRPC4/mu-opioid, Fluo-4 calcium, dose response (AID 434937). Format: functional.

In test [19] the target is Melanin-concentrating hormone receptor 1 (Homo sapiens, UniProt Q99705). The test can be described thus: Fluorescence-based counterscreen for antagonists of the G-protein coupled receptor 7 (GPR7): cell-based high throughput dose response assay to identify antagonists of the melanin-concentrating hormone receptor 1 (MCHR1). Format: functional.
Melanin-concentrating hormone receptor 1, sequence (Q99705 whole entry): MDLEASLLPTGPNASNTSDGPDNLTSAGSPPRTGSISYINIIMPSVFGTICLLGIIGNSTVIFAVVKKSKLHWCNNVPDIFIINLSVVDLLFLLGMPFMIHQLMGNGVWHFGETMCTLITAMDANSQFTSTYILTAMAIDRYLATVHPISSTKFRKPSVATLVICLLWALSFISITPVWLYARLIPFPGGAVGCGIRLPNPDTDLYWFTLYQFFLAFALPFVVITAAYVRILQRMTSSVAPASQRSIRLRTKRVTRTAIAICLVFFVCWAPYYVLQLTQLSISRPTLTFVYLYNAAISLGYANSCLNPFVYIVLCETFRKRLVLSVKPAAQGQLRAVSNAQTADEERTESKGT

On to `COc1ccccc1N1CCN(C(CNC(=O)c2cccc(Cl)c2)c2cccnc2)CC1` (stereo not given), for which the concentration for half-maximal inhibition (IC50) with Staphylococcus aureus is 0.457 µM (active).

As for `CCCN1C=CC(=C2C(=O)c3ccccc3C2=O)C=C1`, the EC50 in test [1] was < 0.195 µM (active); in test [2], 0.127 µM (active); in test [4], 1.09 µM (active); with HEK293 [5] it was 0.589 µM (active); in test [6] it was 0.98 µM (active); in test [7] it was 0.139 µM (active). The EC50 was 18.2 µM (active) in the test on BJ [8]; < 0.1 µM (active) in test [9]; > 133 µM (inactive) in the test with BJ [11]; > 50 µM (not active) with HT-1080; 0.135 µM (active) in the test “cells”; 0.774 µM (active) in the test on HEK293 [12]. Further, the EC50 in test [13] was 6.78 µM (active); in test [14] it was 0.719 µM (active); in test [15], 7.02 µM (active); in the test on BJ [16], 6.69 µM (active). Besides, the half-maximal inhibitory concentration (IC50) was 9.84 µM (active) in [3] and > 80 µM (inactive) in test [10].

For the compound `COc1cccc2[nH]c(C(=O)NC(C)c3ccccc3)cc12` (stereo not given), the half-maximal activity concentration (AC50) in the test with HeLa was 182 µM (active); at CAAX prenyl protease 2 it was 12.1 µM (active); at Trypsin, 11.2 µM (active).

Turning to `CC(NCCC1(Cc2ccccc2Cl)CCOC(C)(C)C1)c1cccs1` (stereo not given), the results for the half-inhibitory concentration (IC50) in test [17] and in [19] were 12.7 µM (not active) and 13.3 µM (not active), respectively. Moreover, the EC50 in test [18] was 5.31 µM (active).
